From PubChem BioAssay (NCI)
Several values for one entry are separate records, joined by “and”; a condition that tells them apart may be missing. Equal entries are not always repeated.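 1) Cells in 96-well plates. 2) Compound, 48 h, 5 concentrations. 3) Linear interpolation between surrounding doses. 4) Unreached endpoint = highest concentration. Abbreviation: GI50, concentration required for 50% inhibition of growth. The concentration for full growth arrest is given as TGI.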

Columns and labels:
Experiment in all cases: NCI anticancer screen, dose series, 48 h
UACC-62 melanoma = test system: UACC-62 melanoma
T-47D breast = test system: T-47D breast
SK-OV-3 ovarian = test system: SK-OV-3 ovarian
EKVX NSCLC = test system: EKVX NSCLC
UO-31 renal = test system: UO-31 renal
UACC-257 melanoma = test system: UACC-257 melanoma
KM12 colon = test system: KM12 colon
MALME-3M melanoma = test system: MALME-3M melanoma
OVCAR-3 ovarian = test system: OVCAR-3 ovarian
SF-539 CNS = test system: SF-539 CNS
SR leukemia = test system: SR leukemia
MDA-MB-435 = test system: MDA-MB-435
HCC-2998 colon = test system: HCC-2998 colon
NCI-H460 lung = test system: NCI-H460 lung
786-0 renal = test system: 786-0 renal
NCI-H23 lung = test system: NCI-H23 lung
SNB-75 CNS = test system: SNB-75 CNS
U251 CNS = test system: U251 CNS
HOP-92 NSCLC = test system: HOP-92 NSCLC
HS 578T breast = test system: HS 578T breast
MOLT-4 leukemia = test system: MOLT-4 leukemia
CCRF-CEM leukemia = test system: CCRF-CEM leukemia
PC-3 prostate = test system: PC-3 prostate
M14 melanoma = test system: M14 melanoma
HCT-15 colon = test system: HCT-15 colon
SK-MEL-5 melanoma = test system: SK-MEL-5 melanoma
HCT-116 colon = test system: HCT-116 colon
SF-268 CNS = test system: SF-268 CNS

SMILES: Nc1nc(N)c2c(ccc3c2ccn3Cc2cccc([N+](=O)[O-])c2)n1
- GI50 (UACC-62 melanoma): 30.6 nM
- TGI (UACC-62 melanoma): 1390 nM
- GI50 (T-47D breast): 739 nM
- TGI (T-47D breast): 3050 nM
- GI50 (SK-OV-3 ovarian): 88.8 nM and 540 nM
- TGI (SK-OV-3 ovarian): 2010 nM and 2110 nM
- GI50 (EKVX NSCLC): 1320 nM
- GI50 (UO-31 renal): 43 nM
- TGI (UO-31 renal): 806 nM
- GI50 (UACC-257 melanoma): 1070 nM
- TGI (UACC-257 melanoma): 2470 nM
- GI50 (KM12 colon): 93.7 nM and 129 nM
- TGI (KM12 colon): 2210 nM and 1950 nM
- GI50 (MALME-3M melanoma): 1210 nM
- TGI (MALME-3M melanoma): 2810 nM
- GI50 (OVCAR-3 ovarian): 1010 nM and 794 nM
- TGI (OVCAR-3 ovarian): 2240 nM and 2220 nM
- GI50 (SF-539 CNS): 45.4 nM
- TGI (SF-539 CNS): 1640 nM
- GI50 (SR leukemia): 7.79 nM
- GI50 (MDA-MB-435): 21.7 nM
- TGI (MDA-MB-435): 2400 nM and 2590 nM
- GI50 (HCC-2998 colon): 49 nM
- TGI (HCC-2998 colon): 1560 nM
- GI50 (NCI-H460 lung): 5.01 nM
- TGI (NCI-H460 lung): 1890 nM and 1350 nM
- GI50 (786-0 renal): 41.1 nM
- TGI (786-0 renal): 1500 nM
- GI50 (NCI-H23 lung): 56.6 nM
- TGI (NCI-H23 lung): 2460 nM
- GI50 (SNB-75 CNS): 1110 nM
- TGI (SNB-75 CNS): 2360 nM
- GI50 (U251 CNS): 18 nM
- TGI (U251 CNS): 1720 nM
- TGI (HOP-92 NSCLC): 3050 nM and 1050 nM
- GI50 (HS 578T breast): 1610 nM
- TGI (HS 578T breast): 3380 nM
- GI50 (MOLT-4 leukemia): 70.4 nM and 62.1 nM
- TGI (MOLT-4 leukemia): 2490 nM
- GI50 (CCRF-CEM leukemia): 22.1 nM and 12.6 nM
- TGI (CCRF-CEM leukemia): 2030 nM and 1070 nM
- GI50 (PC-3 prostate): 163 nM and 20.1 nM
- TGI (PC-3 prostate): 2740 nM and 1740 nM
- GI50 (M14 melanoma): 8.65 nM
- TGI (M14 melanoma): 1770 nM
- GI50 (HCT-15 colon): 12.6 nM
- TGI (HCT-15 colon): 1580 nM and 1700 nM
- GI50 (SK-MEL-5 melanoma): 74.4 nM
- TGI (SK-MEL-5 melanoma): 2150 nM and 1450 nM
- GI50 (HCT-116 colon): 5.91 nM
- TGI (HCT-116 colon): 1840 nM
- GI50 (SF-268 CNS): 53.5 nM
- TGI (SF-268 CNS): 1990 nM
